Consider 2 molecules from US4814353A, “Therapeutic and prophylactic agent for gastritis” (Eisai Co., Ltd., priority 1985, dated 1989).

Data set [1] in a line: Clinical instances, acute gastritis, peroral teprenone (symptoms, endoscopy, side effects). In kind it is in vivo, human. The note with it: 150 mg per day perorally; for subjective symptoms: acute gastritis, 3 days after administration; for endoscopy, lesion of tunica mucosa ventriculi: 5 days after administration. The text has this:
(§1) Specific clinical instances will be illustrated to substantiate the effect of the present invention. In the clinical instances, "teprenone" refers to a compound according to the present invention (teprenone is 6,10,14,18-tetramethyl-;b 5,9,13,17-nonadecatetraen-2-one with n=4 in the general formula (I)).
person: actute gastritis
The instance is concerned with a person who visited a hospital while mainly complaining of epigastralgia.
The subjective symptoms included not only severe epigastralgia but also medium nausea, emesis, anorexia, slight pyrosis, abdominal flatulence, abdominal oppression, gastric dysphoria, and eructation.
150 mg per day of teprenone, which is a compound according to the present invention, was perorally administered to the patient.
person: acute gastritis
The conditions of te patient before administration were as follows.
The subjective symptoms included severe epigastralgia, anorexia, medium pyrosis, nausea, emesis, abdominal flatulence, gastric dysphoria, slight abdominal oppression, and eructation.
In endoscopy before administration, lesion of tunica mucosa ventriculi was recognized in the vestibulum (paries anterior venticuli, curvatura ventriculi minor, paries posterior ventriculi) and angularis (paries anterior ventriculi, curvatura ventriculi minor, paries posterior ventriculi).
(§2) 150 mg per day of teprenone, which is the compound according to the present invention, was perorally administered to the patient.

Data set [2] can be described thus: Acute toxicity test, rat (SD). The note with it: in vivo. From the text:
(§3) |Acute Toxicity LD50 (mg/μg)

The nature of data set [3]: Clinical instances, acute animus state/stage of chronic gastritis, peroral teprenone (symptoms, endoscopy, side effects). In kind it is in vivo, human. The note with it: 150 mg per day perorally.
Text: as §1
person: acute animus state of chronic gastritis
The conditions of the patient before administration were as follows.
The patient complained of subjective symptoms including severe pyrosis, eructation, and slight nausea and emesis. Lesion of mucosa ventriculi was endoscopically recognized in the curvature ventriculi major of the vestibulum.
as §2
(§4) person: acute animus stage of chronic gastritis
The conditions of the patient before administration were as follows. The patient complained of medium epigastralgia, slight abdominal oppression, gastric dysphoria, and anorexia. Lesion of tunica mucosa ventriculi was endoscopically recognized in the curvatura ventriculi minor of the angularis and the curvatura ventriculi minor of the corpus ventriculi.
as §4
The subjective symptoms included epigastralgia, pyrosis, abdominal oppression, gastric dysphoria, and eructation. The levels of them were all medium.
Endoscopically, lesion was recognized in the vestibulum (paries anterior ventriculi, curvatura ventriculi minor, paries posterior ventriculi).

Data set [4] can be described thus: Acute toxicity test, mouse (ICR). The note with it: in vivo.
Text: as §3

Data set [5] can be described thus: Acute toxicity test, dog (beagle). The note with it: in vivo, po, male, peroral.
Text: as §3

Another data set in a line: Solubility. Format: physicochemical.
Setting [6] is: Clinical Instance 5, after two weeks.

Where only a bound is given, the exact number is not on record here.

The term LD50 denotes the dose expected to kill half of the subjects tested. Higher therefore signals lower toxicity. Consider `CC(=O)CCC=C(C)CCC=C(C)CCC=C(C)CCC=C(C)C` [teprenone, 6,10,14,18-tetramethyl-5,9,13,17-nonadecatetraen-2-one], for which the subjective symptoms entry in data set [1] (Clinical Instance 1, person) is “all the symptons disappeared”; in data set [1] (Clinical Instance 3, person), “all the symptoms disappeared”; in data set [3] (Clinical Instance 2, person, chronic gastritis, 3 days after administration), “all the symptoms disappeared”; in data set [3] (Clinical Instance 4, person, chronic gastritis, 3 days after administration) it was “substantially all the symptoms disappeared except that slight epigastralgia remained”; in data set [3] (Clinical Instance 5, person, chronic gastritis, 3 days after administration), “the abdominal oppression, the gastric dysphoria, and the eructation were mitigated, but the epigastralgia and the pyrosis remained unchanged”; in data set [3] (Clinical Instance 5, a week after administration), “all the symptoms disappeared except for slight eructation”. The “observation of clinical inspection” value was “no abnormality was recognized” in data set [1] (Clinical Instance 1) and “no lesion was recognized” in data set [1] (Clinical Instance 3). In addition, the values for the side effects entry in data set [1] (Clinical Instance 1), in data set [1] (Clinical Instance 3) and in data set [3] (Clinical Instance 5) were “no side effect altogether”, “no side effects altogether” and “No side effects were regonized”, respectively. Besides, the “endoscopy, lesion of tunica mucosa ventriculi” value in data set [1] (Clinical Instance 1) was “disappearance of the lesion of the tunica mucosa ventriculi was recognized”; in data set [1] (Clinical Instance 3), “disappearance of the lesion of tunica mucosa ventriculi was recognized”; in data set [3] (Clinical Instance 2, 16 days after administration), “disappearance of the lesion of tunica mucosa ventriculi was recognized”; in data set [3] (Clinical Instance 4, 14 days after administration), “disappearance of the lesion of tunica mucosa ventriculi was recognized”; in data set [3] (setting [6]) it was “the lesion of tunica mucosa ventriculi disappeared in all parts”. Moreover, the LD50 was over 5000 mg/kg in data set [2] (im, female, intramuscular); over 5000 mg/kg in data set [2] (im, male, intramuscular); 3500 to 5000 mg/kg in data set [2] (ip, female, intraperitoneal); over 5000 mg/kg in data set [2] (ip, male, intraperitoneal); over 15000 mg/kg in data set [2] (po, female, peroral); over 15000 mg/kg in data set [2] (po, male, peroral). The LD50 in data set [2] (sc, female, subcutaneous) is over 10000 mg/kg; in data set [2] (sc, male, subcutaneous), over 10000 mg/kg; in data set [4] (im, female, intramuscular) it was over 5000 mg/kg; in data set [4] (im, male, intramuscular), over 5000 mg/kg; in data set [4] (ip, female, intraperitoneal), 3850 mg/kg; in data set [4] (ip, male, intraperitoneal) it was 3750 mg/kg. Besides, the LD50 in data set [4] (po, female, peroral) is over 15000 mg/kg; in data set [4] (po, male, peroral) it was over 15000 mg/kg; in data set [4] (sc, female, subcutaneous), over 10000 mg/kg; in data set [4] (sc, male, subcutaneous) it was over 10000 mg/kg; in data set [5] it was over 1000 mg/kg. Further, the “side effects, including observation of clinical inspection” value in data set [3] (Clinical Instance 2) and in data set [3] (Clinical Instance 4) was “No side effects were recognized altogether” in each case. In addition, the epigastralgia result in data set [3] (Clinical Instance 4, 5 days after administration) is listed as “the epigastralgia also disappeared”. In addition, the eructation result in data set [3] (setting [6]) is “The eructation remained”.

Consider `CC(=O)CCC=C(C)CCC=C(C)CCC=C(C)CCC=C(C)C` (mixture of isomers) [3:2 mixture of (5E,9E,13E)-6,10,14,18-tetramethyl-5,9,13,17-nonadecatetraen-2-one and (5Z,9E,13E)-6,10,14,18-tetramethyl-5,9,13,17-nonadecatetraen-2-one], for which the “solubility in organic solvents” value in “Solubility” (organic solvents) is “soluble in organic solvents”. Also, in the data set “Solubility” (water), the solubility in water result is given as “hardly soluble in water”.
